Assay results as given in US5034392A, “4-(3-(4-oxothiazolidinyl)butynylamines” (Hoechst-Roussel Pharmaceuticals Incorporated, priority 1990, dated 1991).
Structures can show the parent of a compound that is named as a salt.

Columns and labels:
[1] = phenyl-para-quinone writhing assay in mice (analgesia); type: in vivo
Text: The compounds of the present invention are useful as analgesic agents due to their ability to alleviate pain in mammals. […] Exptl. Biol. Med., 95, 729 (1957)]. The analgesic activity of some of the compounds of the invention expressed in terms of percent inhibition of writhing is given in Table 1.

[2] = antihypertensive activity in the spontaneous hypertensive rat by the indirect tail cuff method; type: in vivo; settings: at 50 mg/kg p.o, treated orally for three days, drop measured on the third day
Protocol: Antihypertensive activity is measured in the spontaneous hypertensive rat by the indirect tail cuff method. […] In this procedure a group of five animals is treated orally for three days with the test compound in relation to a control group of the same number. The drop in blood pressure is measured on the third day following administration.

Compound	% Inhibition of Writhing ([1]; at 20 mg/kg s.c.) [%]	mm Hg decrease (decrease in mean arterial blood pressure) [2] [mm Hg]	also measured
O=C1CSC2(CCCC2)N1CC#CCN1CCN(C(c2ccccc2)c2ccc(Cl)cc2)CC1 (stereo not shown) [4-(4-(1-(4-Chlorobenzhydryl)piperazino)-2-butynyl)-1-thia-4-azaspiro[4.4]nonane-3-one trisoxalate]	30		
COc1ccccc1N1CCN(CC#CCN2CSCC2=O)CC1 [3-[4-(1-(2-Methoxyphenyl)piperazino)-2-butynyl]-4-oxothiazolidine sesquioxalate]		51	
O=C1CSCN1CC#CCN1CCN(c2ccc(F)cc2)CC1 [3-(4-(1-(4-Fluorophenyl)piperazino)-2-butynyl-4-oxothiazolidine oxalate]		71	
O=C1CSCN1CC#CCN1CCN(c2ccncc2)CC1 [3-(4-(4-Pyridyl)piperazino)-2-butynyl)-4-oxothiazolidine sesquioxalate]		30	
CC(C)Cc1ccc(C(C)C(=O)O)cc1 (stereo not shown) [ibuprofen, reference compound]			% Inhibition of Writhing ([1]; standard, at 10.4 mg/kg s.c.): 50%
O=C1CSCN1CC#CCN1CCC(c2noc3cc(Cl)ccc23)CC1 [3-(4-[3-(4-piperidyl)-6-chloro-benzisoxazole]-2-butynyl)-4-oxothiazolidine oxalate]	39		
O=C(O)/C=C\C(=O)O.O=C(O)/C=C\C(=O)O.O=C1CSCN1CC#CCN1CCN(C(c2ccccc2)c2ccc(Cl)cc2)CC1 (stereo not shown) [3-(4-(1-(4-Chlorobenzhydryl)piperazino)-2-butynyl)-4-oxothiazolidine bis maleate]		28	
CC(C)=CCN1CCC2(C)c3cc(O)ccc3CC1C2C (stereo not shown) [pentazocine, reference compound]			% Inhibition of Writhing ([1]; standard, at 1.3 mg/kg s.c.): 50%
N=C(N)NCCN1CCCCCCC1 [guanethidine, reference compound]		20	
CC1SCC(=O)N1CC#CCN1CCC(O)(c2ccccc2)CC1.O=C(O)C(=O)O (stereo not shown) [2-Methyl-3-(4-(4-hydroxy-4-phenylpiperidino)-2-butynyl)-4-oxothiazolidine oxalate]	51		
